Columns and labels:
[1] = test system: full length SMN2 minigene mRNA containing SMN2 exon 7 (SMN2-A minigene); assay: SMN2 minigene mRNA splicing RT-qPCR assay in cultured cells; assay type: cell-based, human; settings: Homo sapiens, HEK293-H; HEK293H cells stably transfected with SMN2-A minigene, 24 hours, 7-point concentration curve; concentration giving 1.5-fold SMN2 full length mRNA vs vehicle; read-out: EC1.5x for production of full length SMN2 mRNA
Experimental: SMN2 Minigene mRNA Splicing RT-qPCR Assay in Cultured Cells
The reverse transcription-quantitative PCR-based (RT-qPCR) assay is used to quantify the level of the full length SMN2 minigene mRNA containing SMN2 exon 7 in a HEK293H cell line stably transfected with said minigene and treated with a test compound.
Protocol. HEK293H cells stably transfected with the SMN2-A minigene construct described above (10,000 cells/well) are seeded in 200 μL of cell culture medium (DMEM plus 10% FBS, with 200 μg/mL hygromycin) in 96-well flat-bottom plates and the plate is immediately swirled to ensure proper dispersal of cells, forming an even monolayer of cells. Cells are allowed to attach for at least 4-6 hours. Test compounds are serially diluted 3.16-fold in 100% DMSO to generate a 7-point concentration curve. A solution of test compound (1 μL, 200× in DMSO) is added to each cell-containing well and the plate is incubated for 24 hours in a cell culture incubator (37° C., 5% CO2, 100% relative humidity). Two replicates are prepared for each test compound concentration. The cells are then lysed in Cells-To-Ct lysis buffer and the lysate is stored at −80° C.
Primer SMN Forward A (SEQ ID NO. 1) hybridizes to a nucleotide sequence in exon 7 (nucleotide 22 to nucleotide 40), primer SMN Reverse A (SEQ ID NO. 2) hybridizes to a nucleotide sequence in the coding sequence of Firefly luciferase, SMN Probe A (SEQ ID NO. 3) hybridizes to a nucleotide sequence in exon 7 (nucleotide 50 to nucleotide 54) and exon 8 (nucleotide 1 to nucleotide 21). The combination of these three oligonucleotides detects only SMN1 or SMN2 minigenes (RT-qPCR) and will not detect endogenous SMN1 or SMN2 genes.
The SMN forward and reverse primers are used at final concentrations of 0.4 μM. The SMN probe is used at a final concentration of 0.15 μM. The GAPDH primers are used at final concentrations of 0.2 μM and the probe at 0.15 μM.
The SMN2-minigene GAPDH mix (15 μL total volume) is prepared by combining 7.5 μL of 2×RT-PCR buffer, 0.4 μL of 25×RT-PCR enzyme mix, 0.75 μL of 20×GAPDH primer-probe mix, 4.0075 μL of water, 2 μL of 10-fold diluted cell lysate, 0.06 μL of 100 μM SMN forward primer, 0.06 μL of 100 μM SMN reverse primer, and 0.225 μL of 100 μM SMN probe.
PCR is carried out at the following temperatures for the indicated time: Step 1: 48° C. (15 min); Step 2: 95° C. (10 min); Step 3: 95° C. (15 sec); Step 4: 60° C. (1 min); then repeat Steps 3 and 4 for a total of 40 cycles.
Each reaction mixture contains both SMN2-A minigene and GAPDH primers/probe sets (multiplex design), allowing simultaneous measurement of the levels of two transcripts.
Two SMN spliced products are generated from the SMN2 minigene. The first spliced product containing exon 7, corresponding to SMN2 full length mRNA, is referred to herein using the term “SMN2 minigene FL.” The second spliced product lacking exon 7 is referred to herein using the term “SMN2 minigene Δ7.”
The increase of SMN2 minigene FL mRNA relative to that in cells treated with vehicle control is determined from real-time PCR data using a modified ΔΔCt method (as described in Livak and Schmittgen, Methods, 2001, 25:402-8). The amplification efficiency (E) is calculated from the slope of the amplification curve for SMN2 minigene FL and GAPDH mRNA individually. The abundance of SMN2 minigene FL and GAPDH mRNA are then calculated as (1+E)^−Ct, where Ct is the threshold value for each amplicon. The abundance of SMN2 minigene FL is normalized to GAPDH abundance. The normalized SMN2 minigene FL abundance from test compound-treated samples is then divided by normalized SMN2 minigene FL abundance from vehicle-treated cells to determine the level of SMN2 FL mRNA relative to vehicle control. […]

Smn protein = Smn protein assay (Smn HTRF) in cultured cells; assay type: cell-based, human; settings: Homo sapiens, Fibroblast, GM03813 SMA Type 1 patient fibroblasts, 48 hours, HTRF; for maximal fold induction: 7-point concentration data, relative to vehicle, read-out: maximum fold (Fold) increase of Smn protein; for EC (1.5-fold): concentration producing 1.5 times Smn protein vs DMSO vehicle, read-out: EC1.5x for Smn protein expression
Experimental: Smn Protein Assay in Cultured Cells
The Smn HTRF (homogeneous time resolved fluorescence) assay is used to quantify the level of Smn protein in SMA patient fibroblast cells treated with test compounds.
Protocol. Cells are thawed and cultured in DMEM-10% FBS for 72 hours. Cells are trypsinized, counted and re-suspended to a concentration of 25,000 cells/mL in DMEM-10% FBS. The cell suspension is plated at 5,000 cells per well in a 96 well microtiter plate and incubated for 3 to 5 hours. […] Test compounds are serially diluted 3.16-fold in 100% DMSO to generate a 7-point concentration curve. 1 μL of test compound solution is transferred to cell-containing wells and cells are incubated for 48 hours in a cell culture incubator (37° C., 5% CO2, 100% relateive humidity). Triplicate samples are set up for each test compound concentration. After 48 hours, the supernatant is removed from the wells and 25 μL of the RIPA lysis buffer, containing protease inhibitors, is added to the wells and incubated with shaking at room temperature for 1 hour. 25 μL of the diluent is added and then 35 μL of the resulting lysate is transferred to a 384-well plate, where each well contains 5 μL of the antibody solution (1:100 dilution of anti-SMN d2 and anti-SMN kryptate in SMN reconstitution buffer). The plate is centrifuged for 1 minute to bring the solution to the bottom of the wells, then incubated overnight at room temperature. Fluorescence for each well of the plate at 665 nm and 620 nm is measured on an EnVision multilabel plate reader (Perkin-Elmer).
The normalized fluorescence signal is calculated for each sample, Blank and vehicle control well by dividing the signal at 665 nm by the signal at 620 nm. Normalizing the signal accounts for possible fluorescence quenching due to the matrix effect of the lysate. The AF value (a measurement of Smn protein abundance as a percent value) for each sample well is calculated by subtracting the normalized average fluorescence for the Blank control wells from the normalized fluorescence for each sample well, then dividing this difference by the normalized average fluorescence for the Blank control wells and multiplying the resulting value by 100. The ΔF value for each sample well represents the Smn protein abundance from test compound-treated samples. The ΔF value for each sample well is divided by the ΔF value for the vehicle control wells to calculate the fold increase in Smn protein abundance relative to the vehicle control.
For compounds of Formula (I) or a form thereof disclosed herein, Table 9 provides the EC1.5x for Smn protein expression that was obtained from the 7-point concentration data generated for each test compound according to the procedure of Biological Example 7. The term “EC1.5x for Smn protein expression” is defined as that concentration of test compound that is effective in producing 1.5 times the amount of Smn protein in an SMA patient fibroblast cell compared to the amount produced from the DMSO vehicle control. An EC1.5x for Smn protein expression between >3 μM and ≦10 μM is indicated by one star (*), an EC1.5x between >1 μM and ≦3 μM is indicated by two stars (**), an EC1.5x between >0.3 μM and ≦1 μM is indicated by three stars (***) and an EC1.5x≦0.3 μM is indicated by four stars (****).
For compounds of Formula (I) or a form thereof disclosed herein, Table 10 provides the maximum fold (Fold) increase of Smn protein that was obtained from the 7-point concentration data generated for each test compound according to the procedure of Biological Example 7. A maximum fold increase ≦1.2 is indicated by one star (*), a fold increase between >1.2 and ≦1.35 is indicated by two stars (**), a fold increase between >1.35 and ≦1.5 is indicated by three stars (***), a fold increase between >1.5 and ≦1.65 is indicated by four stars (****) and a fold increase >1.65 is indicated by five stars (*****).

Row | SMILES | melting point [°C] | EC (1.5-fold) [1] [µM] | maximal fold induction (Smn protein) | EC (1.5-fold) (Smn protein) [µM]
1 | O=c1cc(-c2cn3ccccc3n2)oc2ccc(N3CCNCC3)cc12 [Cpd 8, 2-(imidazo[1,2-a]pyridin-2-yl)-6-(piperazin-1-yl)-4H-chromen-4-one] | 207 to 211 | 0.3 to 1 | 1.5 to 1.65 | 3 to 10
2 | Cc1ccn2cc(-c3cc(=O)c4cc(N5C[C@@H](C)N[C@@H](C)C5)ccc4o3)nc2c1 [Cpd 30, 6-[(3R,5S)-3,5-dimethylpiperazin-1-yl]-2-(7-methylimidazo[1,2-a]pyridin-2-yl)-4H-chromen-4-one] | 102 to 104 | 1 to 3 | 1.2 to 1.35 | –
3 | O=c1cc(-c2ccccn2)oc2ccc(N3CCNCC3)cc12 [Cpd 7, 6-(piperazin-1-yl)-2-(pyridin-2-yl)-4H-chromen-4-one] | 170 to 172 | 0.3 to 1 | 1.5 to 1.65 | 3 to 10
4 | O=c1cc(-c2ccc(OC(F)(F)F)cc2)oc2ccc(N3CCNCC3)cc12 [Cpd 64, 6-(piperazin-1-yl)-2-[4-(trifluoromethoxy)phenyl]-4H-chromen-4-one] | 146 to 148 | 0.3 to 1 | ≤ 1.2 | –
5 | CC(C)N1CCN(c2ccc3oc(-c4cccnc4)cc(=O)c3c2)CC1 [Cpd 4, 6-[4-(propan-2-yl)piperazin-1-yl]-2-(pyridin-3-yl)-4H-chromen-4-one] | 148 to 150 | 3 to 30 | ≤ 1.2 | –
6 | O=c1cc(-c2cn3ccccc3n2)oc2ccc(N3CCCNCC3)cc12 [Cpd 18, 6-(1,4-diazepan-1-yl)-2-(imidazo[1,2-a]pyridin-2-yl)-4H-chromen-4-one] | 198 to 200 | 3 to 30 | > 1.65 | 3 to 10
7 | CCOc1ccc(-c2cc(=O)c3cc(N4C[C@@H](C)N[C@@H](C)C4)ccc3o2)cc1 [Cpd 43, 6-[(3R,5S)-3,5-dimethylpiperazin-1-yl]-2-(4-ethoxyphenyl)-4H-chromen-4-one] | – | 1 to 3 | ≤ 1.2 | –
8 | Cc1cn2cc(-c3cc(=O)c4cc(N5CCNCC5)ccc4o3)nc2cn1 [Cpd 72, 2-(6-methylimidazo[1,2-a]pyrazin-2-yl)-6-(piperazin-1-yl)-4H-chromen-4-one] | – | ≤ 0.1 | > 1.65 | ≤ 0.3
9 | CN1CCN(c2ccc3oc(-c4cccnc4)cc(=O)c3c2)CC1 [Cpd 2, 6-(4-methylpiperazin-1-yl)-2-(pyridin-3-yl)-4H-chromen-4-one] | – | 3 to 30 | 1.2 to 1.35 | –

Second part, led by results:

Row | melting point [°C] | SMILES | EC (1.5-fold) [1] [µM] | maximal fold induction (Smn protein) | EC (1.5-fold) (Smn protein) [µM]
10 | 212 to 216 | Cc1cn2cc(-c3cc(=O)c4cc(N5CCN[C@@H](C)C5)ccc4o3)nc2cn1 [Cpd 73, 2-(6-methylimidazo[1,2-a]pyrazin-2-yl)-6-[(3S)-3-methylpiperazin-1-yl]-4H-chromen-4-one] | ≤ 0.1 | > 1.65 | ≤ 0.3
11 | 180 to 190 | O=c1cc(-c2cc(F)cc(F)c2)oc2ccc(N3CCNCC3)cc12 [Cpd 79, 2-(3,5-difluorophenyl)-6-(piperazin-1-yl)-4H-chromen-4-one] | ≤ 0.1 | 1.35 to 1.5 | 3 to 10
12 | 179 to 181 | COc1cc(F)c(-c2cc(=O)c3cc(N4CCN[C@@H](C)C4)ccc3o2)cc1OC [Cpd 46, 2-(2-fluoro-4,5-dimethoxyphenyl)-6-[(3S)-3-methylpiperazin-1-yl]-4H-chromen-4-one] | 0.3 to 1 | 1.5 to 1.65 | 1 to 3
13 | 175 to 178 | C[C@H]1CN(c2ccc3oc(-c4cc(F)cc(F)c4)cc(=O)c3c2)CCN1 [Cpd 80, 2-(3,5-difluorophenyl)-6-[(3S)-3-methylpiperazin-1-yl]-4H-chromen-4-one] | ≤ 0.1 | 1.5 to 1.65 | 0.3 to 1
14 | 170 to 172 | C[C@H]1CN(c2ccc3oc(-c4cccc(F)c4)cc(=O)c3c2)CCN1 [Cpd 77, 2-(3-fluorophenyl)-6-[(3S)-3-methylpiperazin-1-yl]-4H-chromen-4-one] | 0.1 to 0.3 | 1.5 to 1.65 | 0.3 to 1
